Measured values as given in article PMC5964640, “Pharmacological effects of N-[2-[[2-[2-[(2,6-dichlorophenyl)amino]phenyl]acetyl]oxy]ethyl]hyaluronamide (diclofenac Etalhyaluronate, SI-613), a novel sodium hyaluronate derivative chemically linked with diclofenac” (BMC Musculoskeletal Disorders, 2018).
Values joined by “and” are separate entries in the source; they are usually repeats but may differ in a detail not shown here. Equal values may be shown once.

Experiments:
[1] = test system: PGE2 content in the SF; test: PGE2 content in the SF of rabbits with antigen-induced arthritis; type: in vivo, rabbit; settings: for production of PGE2 in the SF, group comparison: 72 h after administration
Method: To prepare the anesthetic, saline (2 mL), midazolam (1 mL, 5 mg/mL, Astellas Pharma Inc., Tokyo, Japan), xylazine (2 mL, 0.02 g/mL, Bayer Medical Ltd., Tokyo, Japan), and butorphanol tartrate (1 mL, 5 mg/mL, Meiji Seika Kaisha, Ltd., Tokyo, Japan) were mixed. The anesthetic was administered intravenously to each animal at a volume of 1 mL/body. OVA (Sigma-Aldrich Co., St. Louis, MO) emulsion with Freund's complete adjuvant (FCA; CAPPEL Laboratories Inc., Cochranville, PA) was injected intradermally into the backs of 80 male rabbits at a dose of 5 mg/animal twice at an interval of 13 or 14 days. Twenty-three days after the first immunization, 1% OVA solution was injected in the joint cavities of the left hindlimb at a volume of 500 μL/joint to induce arthritis. […] Animals were sacrificed by exsanguination under 2% isoflurane anesthesia 3 and 72 h after administration, respectively. The SF was collected by washing the joint cavity twice with saline (Otsuka Pharmaceutical Factory, Inc.) containing 20 μg/mL of indomethacin ([…] K. K.) at 3 or 72 h after the administration of the test materials. The PGE2 content in the SF was determined as a mechanism biomarker for the anti-inflammatory effect using a High Sensitivity Prostaglandin E2 Enzyme Immunoassay Kit (Assay Designs Inc.).

[2] = Distribution of DF in knee tissues after a single administration, short-term study (LC-MS/MS); type: in vivo, rabbit; settings: individual animals, free DF
Method: Two days after the induction of arthritis, 5 mg/joint SI-613, a mixture of 0.59 mg/joint DF-Na and 5 mg/joint HA (DF-Na + HA), or PBS was administered to the knee joint cavity at a volume of 500 μL/joint. DF-Na was orally administered at a dose of 2 mg/kg. The concentrations of free DF in the synovium and synovial lavage fluid were measured by high performance liquid chromatography coupled with tandem mass spectrometry (LC-MS/MS) at 3 and 72 h after a single IA administration and after a single oral administration of the test materials, respectively. Moreover, plasma concentrations of DF were determined to compare the systemic exposure of DF after the administration of SI-613 with that of the other compounds. The synovium was homogenized in 40-fold volume (40 mL for 1 g tissue) of 10 mM ammonium formate (pH 6.0)/methanol (3:2, v/v) on an ice bath. Then, free DF in the homogenate was extracted with tert-butyl methyl ether-1% acetic acid (6:1, v/v). Free DF in the synovial fluid or plasma was adsorbed to an Oasis HLB cartridge (30 mg/1 cm^3, Waters Corporation, Milford, MA) and eluted with methanol. The internal standard of deuterium-labeled diclofenac (diclofenac-d7) was added to each sample. The extract was loaded onto a CAPCELL PAK C18 MG HPLC column (Shiseido Co. Ltd., Tokyo, Japan, column size: 4.6 mm × 35 mm, particle size: 5 μm) at 40 °C, and eluted with 10 mM ammonium formate (pH 6.0)/methanol (2:3, v/v) at a flow rate of 0.5 mL/minute. For mass detection, we used a QTRAP® 5500 System (AB SCIEX, Framingham, MA) equipped with an electrospray ionization (ESI) source in positive ions in multiple reaction monitoring (MRM) mode. Linear calibration (r > 0.999) was attained at 5–1000 ng/g for the synovium and at 1–200 ng/mL for the synovial fluid and plasma.

[3] = Plasma DF concentrations of rabbits with antigen-induced arthritis; type: in vivo, rabbit
Method: Arthritis was induced in the 12 rabbits as described above. Two days after the induction of arthritis, 5 mg/joint SI-613, a mixture of 0.59 mg/joint DF-Na and 5 mg/joint HA (DF-Na + HA), or PBS was administered to the knee joint cavity at a volume of 500 μL/joint. DF-Na was orally administered at a dose of 2 mg/kg. The concentrations of free DF in the synovium and synovial lavage fluid were measured by high performance liquid chromatography coupled with tandem mass spectrometry (LC-MS/MS) at 3 and 72 h after a single IA administration and after a single oral administration of the test materials, respectively. Moreover, plasma concentrations of DF were determined to compare the systemic exposure of DF after the administration of SI-613 with that of the other compounds. The synovium was homogenized in 40-fold volume (40 mL for 1 g tissue) of 10 mM ammonium formate (pH 6.0)/methanol (3:2, v/v) on an ice bath. Then, free DF in the homogenate was extracted with tert-butyl methyl ether-1% acetic acid (6:1, v/v). Free DF in the synovial fluid or plasma was adsorbed to an Oasis HLB cartridge (30 mg/1 cm^3, Waters Corporation, Milford, MA) and eluted with methanol. The internal standard of deuterium-labeled diclofenac (diclofenac-d7) was added to each sample. The extract was loaded onto a CAPCELL PAK C18 MG HPLC column (Shiseido Co. Ltd., Tokyo, Japan, column size: 4.6 mm × 35 mm, particle size: 5 μm) at 40 °C, and eluted with 10 mM ammonium formate (pH 6.0)/methanol (2:3, v/v) at a flow rate of 0.5 mL/minute. For mass detection, we used a QTRAP® 5500 System (AB SCIEX, Framingham, MA) equipped with an electrospray ionization (ESI) source in positive ions in multiple reaction monitoring (MRM) mode. Linear calibration (r > 0.999) was attained at 5–1000 ng/g for the synovium and at 1–200 ng/mL for the synovial fluid and plasma. The extraction efficiencies of diclofenac were 84.2–92.9% for the synovium, 95.2–100.3% for the synovial fluid, and 94.2–96.5% for the plasma.
Time for calculation of area under the DF plasma concentration-time curve (AUC0-t), t (day), was the latest time point at which DF was quantifiable. The half-life (T1/2) was determined by semi-log plotting the data of at least three time points after Tmax.

[4] = DF in knee tissues after a single IA administration of SI-613, long-term study (LC-MS/MS); type: in vivo, rabbit; settings: single IA 5 mg/joint
Method: Arthritis was induced in the 24 rabbits as described above. Two days after the induction of arthritis in the rabbits, 5 mg/joint SI-613 or PBS was administered at a volume of 500 μL/joint into the knee joint cavity. Concentrations of DF in the synovium and synovial lavage fluid were measured by LC-MS/MS on days 1, 3, 7, 14, 21, 28, 35, and 42 after a single IA administration.

[5] = test system: silver nitrate-induced arthritic rats; test: Rat model of silver nitrate-induced arthritic pain (pain score, weight-bearing rate); type: in vivo
Description: The silver nitrate-induced arthritic pain model is known as a subacute arthritis model, in which the inflammatory response and pain last for at least 3 days following injury. This model involves the activation of prostaglandin pathways and has been used for evaluating the analgesic effects of various NSAIDs or kappa-opioid receptor agonist. Overall, 136 male Sprague-Dawley (SD) rats were obtained from Charles River Laboratories Japan Inc. General anesthesia was maintained by the inhalation of isoflurane (Forane; Dainippon Sumitomo Pharma Co., Ltd., Osaka, Japan). Silver nitrate solution (1%, Wako Pure Chemical Industries, Ltd., Osaka, Japan) at a volume of 50 μL/joint was injected in the knee joint cavity of the left hindlimbs of rats. Animals with no abnormalities were allocated to four groups in each study based on the weight-bearing rate of the inflamed joints and pain score at the time of allocation, by using stratified continuous randomization. Test substances were administered on the day following the arthritis induction. In the first study, SI-613 (contents of DF; 11.8% (w/w), manufactured by Seikagaku Corporation, Tokyo, Japan) at doses of 0.05, 0.15, and 0.5 mg/50 μL/joint (5.9, 17.7, and 59 μg/joint in DF equivalent) or phosphate-buffered saline (PBS) was once injected into the joint cavities of the left hindlimbs for the dose-response assessments.
In the second study, SI-613 (0.5 mg/joint, 59 μg/joint in DF equivalent), HA (0.5 mg/joint, Seikagaku Corporation), a mixture of DF-Na (59 μg/joint, Wako Pure Chemical Industries, Ltd.) and HA (0.5 mg/joint) (DF-Na + HA), or PBS was administered in the same manner for the proof of concept. The doses of DF-Na and HA were set at those of respective components in SI-613 formulation. The DF-Na solution (1 mg/mL) was prepared using the Water for Injection (Otsuka Pharmaceutical Factory, Inc., Tokyo, Japan) and administered orally at a dose of 2 mg/kg (approximately 0.3 mg/body) once daily for 3 days. The oral DF-Na dose, 2 mg/kg, was set in accordance with the dose for adult humans with a body weight of 50 kg, on the assumption that the maximum daily dose in clinical practice administered to patients with OA or rheumatoid arthritis would be 100 mg. It has been reported that DF-Na exerted anti-inflammatory effects in rats when administered at this dose.
Pain was assessed under blinded conditions by scoring pain-related behaviors based on the following criteria and measuring the weight-bearing rates of hindlimbs with a load-measuring device (Tokken Inc., Chiba, Japan) at a same time each day for 3 days after the injection of the test materials.
The criteria for assigning pain scores were as follows: 0; normal, 1; mild claudication with lifting the foot, 2; severe claudication with completely closing the toe, 3; walking on three legs. The weight-bearing rate was calculated using the following formula:
Weight-bearing rate (%) = Mean weight-bearing load on inflamed leg (g) / Body weight (g) × 100.

[6] = test system: PGE2 content in the synovial fluid; test: PGE2 content in the synovial fluid of silver nitrate-induced arthritic rats; type: in vivo, rat
Method: In addition, the prostaglandin E2 (PGE2) content, which plays a critical role in inducing inflammation and pain associated with arthritis, was determined in the synovial fluid (SF). Briefly, SI-613 (0.5 mg/joint) or PBS was administered into the joint cavity of the left hindlimb. After assessing the severity of pain, animals were sacrificed by exsanguination under 2% isoflurane anesthesia 1, 2 and 3 days after administration, respectively. The SF was collected by washing the joint cavity with saline (Otsuka Pharmaceutical Factory, Inc.) containing indomethacin (Indacin, MSD K. K., Tokyo, Japan), which was effective to prevent joint puncturing-induced production of PGE2 (unpublished result). The PGE2 content in the SF was measured with a High Sensitivity PGE2 Correlate-EIA kit (Assay Designs Inc., Ann Arbor, MI).

[7] = test system: antigen-induced arthritic rabbits; test: Knee joint swelling of antigen-induced arthritic rabbits (long-lasting anti-inflammatory effect); type: in vivo, rabbit; settings: single IA 5 mg/joint
Method: The duration and efficacy of the anti-inflammatory effect of SI-613 was studied in OVA-induced arthritis rabbits. Two days after the arthritis induction, the knee joint diameter in all 60 rabbits was measured with a digital thickness gauge (Teclock Corp., Nagano, Japan). The joint swelling was expressed as the difference in millimeters between the inflamed (left) and non-inflamed (right) knee joint diameters. The same researcher evaluated the knee joint swelling on all groups on all days. Fifteen animals (knee joint swelling was not more than 7.30 mm) and 5 animals (knee joint swelling was not less than 10.40 mm) were excluded. Forty animals were divided into two groups of 20 animals each by the stratified random sampling method based on the knee joint swelling and body weight of the day, and were administered with 5 mg/joint SI-613 or PBS at a volume of 500 μL/joint into the joint cavities. The knee joint swelling was evaluated the day before (day 0), and on days 1, 3, 7, 14, 21, 28, 35, and 42 after a single injection of the test materials. The knee joint swelling was expressed as the difference in the width of the right and left knee joint.

[8] = sampling point 72 h, oral 2 mg/kg or single IA
[9] = sampling point 72 h, oral 2 mg/kg or single IA, 2 mg/kg
[10] = second study, single IA 0.5 mg/joint, compared with PBS, HA, DF-Na + HA or repeated oral DF-Na

## O=C(O)Cc1ccccc1Nc1c(Cl)cccc1Cl [DF-Na, diclofenac sodium]
[1]; 3 h after administration, DF-Na oral 2 mg/kg
  mean PGE2 content in the SF: 3767 pg/joint
[1]; 3 h after administration, oral 2 mg/kg
  production of PGE2 in the SF compared with the control group: significantly suppressed
[1]
  production of PGE2 in the SF, group comparison: No significant differences
[2]; sampling point 3 h
  Concentration of DF Synovial lavage fluid: 124.6 ng/mL fluid and 58.23 ng/mL fluid and 45.66 ng/mL fluid
  Concentration of DF Synovium: 155.8 ng/g tissue and 52.88 ng/g tissue and 75.83 ng/g tissue
[2]; [8]
  Concentration of DF Synovial lavage fluid: BLQ2 (< 1 ng of DF per mL of synovial lavage fluid)
  Concentration of DF Synovium: BLQ1 (below limit of quantification, < 5 ng/g)
[3]; rabbit, plasma, po, 2 mg/kg, mean ± SD, read-out: AUC0-∞ of DF in plasma
  AUC(0-inf): 4.13 µg·h/mL
[3]; rabbit, plasma, po, 2 mg/kg, mean ± SD, read-out: t1/2 of DF in plasma (converted)
  half-life: 12.8 h
[3]; rabbit, plasma, po, 2 mg/kg, same groups, mean ± SD
  Tmax: 2.4 ± 3.2 h
[3]; rabbit, plasma, po, 2 mg/kg, t = latest time point at which DF was quantifiable, mean ± SD, read-out: AUC0-t of DF in plasma
  AUC(0-t): 4.69 ± 1.91 µg·h/mL
[3]; rabbit, plasma, DF-Na oral 2 mg/kg, mixture DF-Na 0.59 mg + HA 5 mg/joint IA, SI-613 5 mg/joint IA, mean ± SD
  Cmax: 0.621 ± 0.372 µg/mL

## N-[2-[[2-[2-[(2,6-dichlorophenyl)amino]phenyl]acetyl]oxy]ethyl]hyaluronamide [SI-613]
[4]; day 21
  mean amount of DF in the joint cavity lavage fluid: 5.940 ng/joint
[4]; day 28
  DF in the joint cavity lavage fluid: < 1 ng of DF per mL of synovial lavage fluid
  mean DF concentration in the synovium: 9.754 ng/g
[1]
  production of PGE2 in the SF, group comparison: significantly suppressed
[2]; [9]
  Concentration of DF Synovial lavage fluid: 60.64 ng/mL fluid and 38.82 ng/mL fluid and 1540 ng/mL fluid
  Concentration of DF Synovium: 15.23 ng/g tissue and 45.47 ng/g tissue and 351.1 ng/g tissue
[3]; SI-613 IA vs DF-Na + HA IA
  plasma AUC0-t of DF, times smaller than DF-Na + HA group (IA): 16 times
  plasma Cmax of DF, times lower than DF-Na + HA group (IA): 94 times
[3]; SI-613 IA vs DF-Na oral
  plasma AUC0-t of DF, times smaller than DF-Na group (oral): 187 times
  plasma Cmax of DF, times lower than DF-Na group (oral): 462 times
[5]; PGE2 study, IA 0.5 mg/joint, days 1, 2 and 3
  analgesic effect (pain score): confirmed each day
[5]; first study, single IA 0.05, 0.15 and 0.5 mg/joint, vs control (PBS), mean of 3 days
  pain behavioral score: improved the pain behavioral scores significantly
[5]; first study, single IA 0.15 and 0.5 mg/joint, vs control, mean of 3 days
  weight-bearing rate: significantly increased the weight-bearing rates
[5]; [10]
  pain behavioral score: significantly improved the pain behavioral score
  weight-bearing rate: increased the weight-bearing rate
[6]; IA 0.5 mg/joint, days 1, 2 and 3
  PGE2 content in the SF vs control: lower PGE2 content than the control group
[6]; rat model, 72 h after administration
  PGE2-inhibitory effect, statistical significance vs control: no statistically significant difference
[7]; day 1 until day 28
  knee joint swelling compared with the control: significantly decreased
[7]; day 35 and day 42
  knee joint swelling compared with the control: no significant difference
